The record followed here is PubChem BioAssay (NCI).

Common to all, as to assay: NCI anticancer screen, dose series, 48 h
In test [1] the test system is CAKI-1 renal.
The subject of test [2] is NCI-H522 lung.
Test [3] deals with OVCAR-5 ovarian.
Test [4] has as its system SW-620 colon.
Test [5] deals with HOP-62 NSCLC.
For test [6], the system named is RPMI-8226 leukemia.
The test system of test [7] is K-562 leukemia.
The subject of test [8] is HCT-116 colon.
Test [9] relates to MDA-MB-231 breast.
Test [10] concerns HCC-2998 colon.

Where “and” joins values, the source holds several entries; their conditions need not be identical. Identical values can stand only once.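 A five-concentration, 48-hour dose response in 96-well plates underlies each endpoint, interpolated linearly between surrounding concentrations. The concentration for 50% growth inhibition is given as GI50. The concentration for full growth arrest is given as TGI.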 Where a SMILES comes first, the peptide text is derived from it. [ ]: non-standard residue; d: D form. The star is where a group is joined. NMeAc5c = CNC1(C(=O)O)CCCC1; Boc = CC(C)(C)OC(=O)*; OBn = c1ccc(CO*)cc1

On to `CCOC(=O)CSc1c(C(=O)OCC)c(=O)n(-c2ccccc2)c(=S)n1-c1ccccc1`, for which the TGI in test [1], in test [2], in test [3], in test [4], in test [5] and in [6] was > 100 µM in each case. For the same molecule, the TGI in test [7] and in [8] was > 100 µM in each case.
As for `Cc1cc(Cc2cc(C)c(N)cc2N)c(N)cc1N`, the TGI in [1], in test [2], in test [3], in test [4], in test [9] and in test [5] was > 100 µM in each case. Moreover, the TGI in test [6], in [7] and in test [8] was > 100 µM throughout.
As for `CCC(C(=O)O)c1ccc(OC)cc1` (centres undefined), the TGI in test [1], in [2], in [3], in test [4], in [10] and in test [5] was > 100 µM each time. Moreover, the TGI in test [6], in test [7] and in test [8] was > 100 µM in each case.
On to `COC(=O)C1SC(SC)=NC12c1ccccc1Nc1ccccc12` (centres undefined), for which the TGI in test [1] was > 100 µM; in [2], 49.3 µM; in test [3], > 100 µM; in [4] it was > 100 µM; in test [10] it was 74.3 µM; in [5], > 100 µM. Moreover, the figures for the TGI in test [6], in [7] and in [8] were 49.4 µM, > 100 µM and > 100 µM, respectively.
For the molecule `CC(C)(C)OC(=O)N[C@H]1CCN(C2CCCCC2)C1=O`, the TGI in [3], in [4], in test [10], in test [9], in test [5] and in [6] was > 100 µM in each case. The TGI in test [7] and in [8] was > 100 µM each time.
Turning to `S=C1Nc2ccccc2SC1c1ccccc1` (centres undefined), the TGI was > 100 µM in test [1]; > 100 µM in test [2]; > 100 µM in test [3]; > 100 µM in [9]; 55.2 µM in test [5]; > 100 µM in [6]. Besides, the TGI in [7] and in [8] was > 100 µM each time.
In the case of `CCOC(=O)c1cn2c(n1)sc1cccc(C)c12`, the TGI in test [1], in test [2], in [3], in test [10], in test [9] and in test [5] was > 100 µM throughout. The TGI in [8] was > 100 µM.
In the case of `CCCCCCCCCCCCCCNC(=O)CCC(NC(=O)c1ccc(N(C)Cc2cnc3nc(N)nc(N)c3n2)cc1)C(=O)NCCCCCCCCCCCCCC` (centres undefined), the TGI in test [1] was > 100 µM; in test [2] it was 32.4 µM; in test [3] it was > 48.3 µM; in test [4], > 43 µM; in [10], 19.8 µM; in test [9], > 44.8 µM. Further, the TGI was 21.2 µM in test [5], > 100 µM in [7] and > 100 µM in test [8].
For `CC(C)(C)N1CSC(=S)N(Cc2ccco2)C1`, the TGI stood at 12.4 µM in test [1]; 12 µM in test [2]; 11.7 µM in test [3]; 11.9 µM in [4]; 13.3 µM in test [10]; 19.4 µM in test [5]. The TGI is 0.697 µM in [6], 13.3 µM in [7] and 16.7 µM in [8].
On to `O=C1CCCSC(=O)N1Cc1ccccc1`, for which the TGI in [1], in test [2], in test [3], in [4], in test [10] and in test [9] was > 100 µM each time. For the same molecule, the TGI in [5] and in test [8] was > 100 µM throughout.
As for `O=C1c2ccccc2-c2c1c1ccccc1c(=O)n2CCNCCNCCNCCn1c2c(c3ccccc3c1=O)C(=O)c1ccccc1-2`, the GI50 is 1.44 µM in test [1]; 0.449 µM in [3]; 0.194 µM in [4]; 0.591 µM in [10]; 0.136 µM in test [9]; 0.0483 µM in [5]. The GI50 in [6] was 0.0499 µM; in test [7], 0.253 µM; in test [8], 0.111 µM. In addition, the TGI is 4.19 µM in test [1]; > 100 µM in test [4]; 6.11 µM in test [10]; 1.01 µM in test [9]; 2.45 µM in test [5]; > 100 µM in [8].
In the case of `N#CC1(C#N)N[C@@H](c2ccsc2)[C@H]2C(=O)N(c3ccccc3)C(=O)[C@H]21`, the TGI in test [1] was > 100 µM; in test [2] it was > 100 µM; in test [4] it was > 100 µM; in [9], > 100 µM; in [5], > 100 µM; in test [6] it was 53.5 µM. The TGI in test [7] and in test [8] was > 100 µM throughout.
With `C=C(C)C(=O)OC1C/C(CO)=C\C(O)C/C(C)=C/C2OC(=O)C(=C)C21` (centres undefined), the TGI is 58.7 µM in [1]; 30.3 µM in [2]; > 100 µM in test [3]; 33.3 µM in [4]; > 100 µM in test [5]; 45.6 µM in test [6]. Moreover, the TGI was found to be 58.2 µM in [7] and 37.1 µM in [8].
Take `CCCCC#C[I+]c1ccccc1`: the TGI was determined as 27.1 µM in test [1]; 15.5 µM in test [2]; 28 µM in [3]; 34.4 µM in test [10]; 37.6 µM in [5]; 40.3 µM in [7]. For the same molecule, the TGI in test [8] was found to be 30 µM.
Turning to `Nc1nc(SCCc2ccccc2)c2[nH]cnc2n1`, the TGI was > 100 µM in test [1]; > 100 µM in test [2]; > 100 µM in test [3]; > 100 µM in test [4]; 93.8 µM in [10]; > 100 µM in test [9]. For the same molecule, the TGI in test [5], in [7] and in test [8] was > 100 µM in each case.
`COc1ccc2c(c1)/C(=C/CCN(C)C)c1ccccc1S2`: the TGI in test [4], in test [10], in test [9], in test [7] and in test [8] was > 100 µM each time.
With `C=CCN1C[C@H](C)N([C@H](c2ccc(C(=O)NC(CC)CC)cc2)c2cccc(OC)c2)C[C@H]1C`, the TGI in test [1] was 65.1 µM; in test [2], 34.7 µM; in [3], > 100 µM; in test [4], > 100 µM; in test [10], > 100 µM; in test [9], 75.6 µM. The TGI in test [5], in test [7] and in test [8] was > 100 µM throughout.
Take `C[C@]12CCC(O)CC1=CC[C@@H]1[C@@H]2CC[C@]2(C)C(=O)[C@H](n3ccnc3)C[C@@H]12` (some centres undefined): the TGI in test [1], in test [2], in test [3], in [4], in [9] and in test [6] was > 100 µM each time. Besides, the TGI in test [7] and in [8] was > 100 µM each time.
In the case of `CC1CCC(n2c3cnccc3c3cnc(Nc4ccc5c(n4)CCN(C(=O)CO)C5)nc32)CC1` (centres undefined), the GI50 in [1] was 0.536 µM; in test [2] it was > 100 µM; in [4], 0.278 µM; in test [9], 1.38 µM; in test [6], 1.43 µM; in test [8] it was 0.462 µM. Also, the TGI in test [1], in test [2], in [4], in test [9], in test [6] and in [8] was > 100 µM each time.
`C[C@@H](NC(=O)[C@@H]1C[C@]1(C)COC(=O)c1cc([N+](=O)[O-])cc([N+](=O)[O-])c1)c1cccc2ccccc12`: the TGI in [1], in [3], in [4], in [10], in test [9] and in test [5] was > 100 µM in each case. The TGI in test [6], in test [7] and in test [8] was > 100 µM throughout.
Turning to `O=c1ccc(-c2ccccc2)n[nH]1`, the TGI in test [1], in test [2], in [3], in test [4], in test [10] and in test [9] was > 100 µM in each case. Further, the TGI in test [5], in [7] and in [8] was > 100 µM each time.
With `COc1cccc(C(=O)O[C@H]2[C@@H]3[C@]4(OC(C)=O)CO[C@@H]4C[C@H](O)[C@@]3(C)C(=O)[C@H](OC(C)=O)C3=C(C)[C@@H](OC(=O)[C@H](O)[C@@H](NC(=O)OC(C)(C)C)c4ccco4)C[C@]2(O)C3(C)C)c1`, the TGI is > 37.5 µM in test [1]; 0.157 µM in test [2]; > 22.8 µM in test [3]; > 37.5 µM in [4]; > 37.5 µM in test [9]; > 32.7 µM in test [5]. In test [8], this molecule registered a TGI of 9.93 µM.
`CN(C(=O)C(Cc1ccccc1)NC(=O)OC(C)(C)C)C1(C(=O)NC(Cc2ccccc2)C(=O)OCc2ccccc2)CCCC1` (stereo not drawn) (Boc-Phe-[NMeAc5c]-Phe-OBn; configuration not given here): the TGI was > 100 µM in test [3]; > 100 µM in [4]; > 100 µM in [10]; 87 µM in test [9]; > 100 µM in [5]; 57.2 µM in test [6]. For the same molecule, the TGI in [7] is 97 µM; in test [8], > 100 µM.
Take `CC(C)CCS(=O)(=O)OCCCCOS(=O)(=O)CCC(C)C`: the TGI in test [2] is > 100 µM; in test [4] it was > 100 µM; in test [10] it was > 100 µM; in test [5] it was 26.9 µM; in [6] it was > 100 µM; in [7], > 100 µM. Besides, the TGI in [8] was > 100 µM.
Consider `O=C(NC(=O)c1ccccc1[N+](=O)[O-])Nc1ccc(Oc2ncc(Br)cn2)c(Cl)c1`, for which the TGI in [2] is 0.0378 µM and 0.198 µM; in test [3], 0.0522 µM; in [10] it was 32.9 µM. Besides, the GI50 in test [4] is < 0.0187 µM; in test [10], 0.0497 µM; in test [5] it was 0.0454 µM; in test [6], < 0.02 µM.
Turning to `NC(=O)NCCCC(NC(=O)OCCCCn1ccc(=O)[nH]c1=O)C(=O)O` (centres undefined), the TGI in test [1], in test [3], in test [4], in test [10], in [9] and in test [5] was > 100 µM in each case. The TGI in test [6], in test [7] and in test [8] was > 100 µM each time.
Turning to `O=C1/C(=C\c2ccccc2)C(NC2CCCCC2)c2ccccc21` (centres undefined), the TGI in test [1] stood at 2.83 µM; in test [2], 2.05 µM; in test [3], 10.4 µM; in [4], 2.12 µM; in [9], 5.2 µM; in [5], 7.21 µM. Also, the TGI was found to be 2.42 µM in test [6], 5.07 µM in test [7] and 2.44 µM in test [8].
As for `NC(N)=N/N=C/c1c(-c2ccc(N)cc2)nc2sccn12`, the TGI in [1] was > 100 µM; in test [2], 76 µM; in [3], 46.8 µM; in test [4], 68.2 µM; in [9], 48.4 µM; in test [5], 79 µM. Besides, the TGI in [6] came out at 99.2 µM; in [7], 66.1 µM; in [8], 59.2 µM.
In the case of `COc1cc(C(=O)N(C(=S)OCc2ccccn2)c2ccccc2)cc(OC)c1OC`, the TGI in [1] was > 100 µM; in test [3] it was > 100 µM; in [4] it was > 100 µM; in [9] it was > 100 µM; in test [6], 99.8 µM; in [7], > 100 µM. Moreover, in test [8], the TGI was > 100 µM.
For `ClCCN1CCC2(CC1)SSC1(CCN(CCCl)CC1)S2`, the TGI in test [1] is 33.4 µM; in test [3] it was 72 µM; in [4] it was > 100 µM; in test [9], > 100 µM; in test [5], > 100 µM; in [6], 57.1 µM. Moreover, the TGI in [7] and in test [8] was > 100 µM in each case.
